System: tobacco budworm (Heliothis virescens [Fabricius])
Test: surface-treated diet test against tobacco budworm
Format: in vivo
Conditions: 0.25 millimolar on surface of diet; second instar larvae; five-day exposure; inhibition of insect weight relative to untreated controls
Experimental: Candidate insecticides were evaluated for activity against the tobacco budworm (Heliothis virescens [Fabricius]) in a surface-treated diet test.
In this test one mL of molten (65-70° C.) wheat germ-based artificial diet was pipetted into each well of a four by six (24 well) multi-well plate (ID#430345-15—[…].×17.6 mm deep; Corning Costar Corp., One Alewife Center, Cambridge, Mass. 02140). The diet was allowed to cool to ambient temperature before treatment with candidate insecticide.
For a determination of insecticidal activity, solutions of the candidate insecticides were prepared for testing using a Packard 204DT Multiprobe® Robotic System (Packard Instrument Company, 800 Research Parkway, Meriden, Conn. 06450), in which the robot first diluted a standard 50 millimolar DMSO solution of candidate insecticide with a 1:1 water/acetone solution (V/V) in a ratio of 1:7 stock solution to water/acetone. The robot subsequently pipetted 40 microliters of the so-prepared solution onto the surface of the diet in each of three wells in the 24 multi-well plate. The process was repeated with solutions of seven other candidate insecticides. […]
After the five-day exposure period insecticidal activity for each rate of application of candidate insecticide was assessed as percent inhibition of insect weight relative to the weight of insects from untreated controls. […]

Compound | Percent Growth Inhibition [%]
FC(F)(F)c1ccc(N2CCN(c3cc(OCC=C(Cl)Cl)cc(Cl)c3Br)CC2)nc1 [Compound 19, 5-(3,3-dichloroprop-2-enyloxy)-2-bromo-3-chloro-1-{4-[5-(trifluoromethyl)(2-pyridyl)]piperazinyl}-benzene] | 100
CC1(C)Cc2cccc(OCCCCOc3cc(OCC=C(Cl)Cl)cc(Cl)c3Cl)c2O1 [Compound 2, 7-{4-[5-(3,3-dichloroprop-2-enyloxy)-2,3-dichlorophenoxy]butoxy}-2,2-dimethyl-2,3-dihydro-benzo[b]furan] | 100
